Consider 3 molecules from patent US11046672B2, “Indolinones compounds and their use in the treatment of fibrotic diseases” (RESPIVERT LIMITED, priority 2015, dated 2021).

Data set [1] has as its target T1, PDGFRβ (Homo sapiens (Human), UniProt P09619). Nature of the data set: PDGF-BB induced phosphorylation of PDGFRβ in fibroblasts (MRC5 cells, HTRF). The following applies: MRC5 cells; n = 1 unless otherwise indicated; read-out: PDGFBB-induced PDGFRβ phosphorylation in MRC5 cells (IC50). The data set is classed as cell-based.
A further data set can be described thus: PAMPA permeability assay. The class given is in vitro ADME. To be noted: PAMPA; for recovery at 5 hr, 10 μM: pH 7, PAMPA; for Papp at 5 h, 10 μM: pH 7, pH 7, 10 μM. In general terms: The PAMPA barrier holds no transporters, so it reflects passive diffusion.
A short description of data set [2]: Pharmacokinetic measurements in rats (intravenous and intra-tracheal dosing). The data set is classed as in vivo. The following applies: rat; for concentration at 0.1 h / concentration at 1.5 h / concentration at 24 h: lung, read-out: lung concentration (nM) at time (h); for Kp at 0.1 h / Kp at 1.5 h / Kp at 24 h: lung/plasma.
The target of data set [3] is T1, PDGFRβ. To be noted: read-out: Ki PDGFRβ; mean, n = 2 unless otherwise indicated.
Another data set concerns MRC5 cells. The experiment in a line: Cell viability assay in MRC5 cells (MTT).
Data set [4] deals with T1, PDGFRβ. Nature of the data set: Duration of action (washout) against PDGF-BB induced phosphorylation of PDGFRβ in human fetal lung fibroblast cells. To be noted: MRC-5 cells. The data set is classed as cell-based.
Setting [5] is: donor and acceptor compartments.
The mark [6] stands for this setting: male, CD, iv, i.v. dosing, 0.1 h.
[7] abbreviates: male, CD, iv, i.v. dosing, 1.5 h.
[8] abbreviates: male, CD, iv, i.v. dosing, 24 h.
Where [9] appears, read: male, CD, other: intra-tracheal, i.t. dosing, 0.1 h.
Setting [10] is: male, CD, other: intra-tracheal, i.t. dosing, 1.5 h.
[11] abbreviates: male, CD, other: intra-tracheal, i.t. dosing, 24 h.
Setting [12] is: male, CD, iv, i.v. dosing, 0.1 h, read-out: lung/plasma ratio at time(h).
Where [13] appears, read: male, CD, iv, i.v. dosing, 1.5 h, read-out: lung/plasma ratio at time(h).
Where [14] appears, read: male, CD, other: intra-tracheal, i.t. dosing, 0.1 h, read-out: lung/plasma conc ratio at time(h).
Setting [15] is: male, CD, other: intra-tracheal, i.t. dosing, 1.5 h, read-out: lung/plasma conc ratio at time(h).

Values joined by “and” are separate entries in the source; they are usually repeats but may differ in a detail not shown here. Equal values may be shown once. Read-outs that look alike come from different tables or passages of the source.

T1 sequence (P09619 33-1106): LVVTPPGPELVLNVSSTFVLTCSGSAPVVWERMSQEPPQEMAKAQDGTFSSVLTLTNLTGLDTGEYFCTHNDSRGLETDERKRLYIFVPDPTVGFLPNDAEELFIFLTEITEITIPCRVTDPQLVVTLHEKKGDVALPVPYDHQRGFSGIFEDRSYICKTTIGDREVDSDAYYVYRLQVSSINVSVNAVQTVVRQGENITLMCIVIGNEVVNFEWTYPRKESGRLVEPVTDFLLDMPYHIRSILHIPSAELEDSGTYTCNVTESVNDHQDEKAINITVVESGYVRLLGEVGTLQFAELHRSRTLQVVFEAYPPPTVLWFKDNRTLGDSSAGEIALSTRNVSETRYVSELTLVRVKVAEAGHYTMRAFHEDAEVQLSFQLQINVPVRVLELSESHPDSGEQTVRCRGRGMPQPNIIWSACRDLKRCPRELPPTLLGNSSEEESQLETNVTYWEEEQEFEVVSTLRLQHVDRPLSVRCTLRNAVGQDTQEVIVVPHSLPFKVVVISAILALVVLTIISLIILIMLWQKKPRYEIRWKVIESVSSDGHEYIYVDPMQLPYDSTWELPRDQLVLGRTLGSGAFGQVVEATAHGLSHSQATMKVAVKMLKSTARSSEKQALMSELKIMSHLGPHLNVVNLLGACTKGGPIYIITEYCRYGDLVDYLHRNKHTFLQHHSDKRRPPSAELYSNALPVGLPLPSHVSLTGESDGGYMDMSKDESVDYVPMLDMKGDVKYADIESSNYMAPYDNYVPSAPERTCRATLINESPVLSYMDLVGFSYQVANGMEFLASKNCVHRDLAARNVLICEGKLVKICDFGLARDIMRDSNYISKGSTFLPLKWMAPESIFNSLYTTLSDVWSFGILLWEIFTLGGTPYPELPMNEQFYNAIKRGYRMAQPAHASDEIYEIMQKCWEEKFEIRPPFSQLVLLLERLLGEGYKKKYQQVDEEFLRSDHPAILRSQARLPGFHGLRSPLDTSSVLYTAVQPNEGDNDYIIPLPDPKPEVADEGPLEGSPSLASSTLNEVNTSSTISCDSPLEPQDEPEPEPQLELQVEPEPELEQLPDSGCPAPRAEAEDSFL

The IC50 is the midpoint of a concentration-inhibition curve. Broadly, the Papp is a coefficient for how fast a substance crosses the barrier. A lower Papp goes with slow passage. For orientation: Ki means the equilibrium dissociation constant of an inhibitor or competing ligand from its target. On to `COC(=O)c1ccc2c(c1)NC(=O)/C2=C(\Nc1ccc(S(=O)(=O)NOCCN(C)C)cc1)c1ccccc1` [Example 15], for which, at PDGFRβ [1], the half-inhibitory concentration (IC50) turned out to be 19.9 nM. Besides, the recovery at 5 hr, 10 μM in “PAMPA permeability assay” (setting [5]) amounted to 37.6%. This molecule also came in with an apparent permeability coefficient (Papp) at 5 h, 10 μM in the data set “PAMPA permeability assay” of 0.0756 ×10⁻⁶ cm/s. Further, the figures for the concentration at 0.1 h in data set [2] (setting [6]) and in data set [2] (setting [9]) were 501 nM and 3430 nM, respectively. The concentration at 1.5 h in data set [2] (setting [7]) worked out at 209 nM; in data set [2] (setting [10]), 1370 nM. In addition, the concentration at 24 h was 66 nM in data set [2] (setting [8]) and 135 nM in data set [2] (setting [11]). For the same molecule, the Kp at 0.1 h is 55 in data set [2] (setting [12]) and 177 in data set [2] (setting [14]). Also, the Kp at 1.5 h in data set [2] (setting [13]) was 62; in data set [2] (setting [15]), 884. Also, the Kp at 24 h in data set [2] (male, CD, iv, i.v. dosing, 24 h, read-out: lung/plasma ratio at time(h)) is 103; in data set [2] (male, CD, other: intra-tracheal, i.t. dosing, 24 h, read-out: lung/plasma conc ratio at time(h)), 314. Further, the “Lung conc i.t./i.v. Ratio at time (h)” value was found to be 6.9 in data set [2] (0.1 h), 6.6 in data set [2] (1.5 h) and 2.0 in data set [2] (24 h). For the same molecule, the “BAL % administered dose at time (h)” value in data set [2] (i.t. dosing, 0.1 h) is 2.4%; in data set [2] (i.t. dosing, 1.5 h), 0.6%; in data set [2] (i.t. dosing, 24 h), 0.1%; in data set [2] (i.v. dosing, 0.1 h) it was 0.09%; in data set [2] (i.v. dosing, 1.5 h), 0.02%; in data set [2] (i.v. dosing, 24 h), 0.01%. Also, the inhibition constant Ki on PDGFRβ [3] was 21.7 nM. For the same molecule, the “Cell viability at 100 nM (%)” value in the data set on MRC5 cells is reported as 106.9%. Also, the “Cell viability at 300 nM (%)” value in the data set with MRC5 cells turned out to be 99%. Moreover, in the data set on MRC5 cells, the “Cell viability at 1000 nM (%)” value stood at 97.5%.
A word on the MRT: it is the average time that molecules of a dose stay in the body. The term clearance denotes the volume of plasma or blood freed of the substance per unit of time. A high value points to a high capacity for elimination. Take `COC(=O)c1ccc2c(c1)NC(=O)/C2=C(\Nc1ccc(C(=O)NOCCN2CCN(C)CC2)cc1)c1ccccc1` [Example 4, (Z)-Methyl 3-(((4-((2-(4-methylpiperazin-1-yl)ethoxy)carbamoyl)phenyl)amino)(phenyl)methylene)-2-oxoindoline-6-carboxylate]: the IC50 at PDGFRβ [1] was found to be 15.2 nM. In addition, on PDGFRβ [4] (wash-out), the “Duration of action as inhibitors of PDGFRβ compared with nintedanib” value is recorded as “longer duration of action”. Besides, the “% Recovery” value in “PAMPA permeability assay” (setting [5]) was 44.9% and 75.6%. Moreover, the values for the concentration at 0.1 h in data set [2] (setting [6]) and in data set [2] (setting [9]) were 419 nM and 5540 nM, respectively. Further, the concentration at 1.5 h is 266 nM in data set [2] (setting [7]) and 1540 nM in data set [2] (setting [10]). The concentration at 24 h in data set [2] (setting [8]) was determined as 12 nM; in data set [2] (setting [11]), 218 nM. Also, the Kp at 0.1 h in data set [2] (setting [12]) stood at 77; in data set [2] (setting [14]), 279. Moreover, the Kp at 1.5 h was 285 in data set [2] (setting [13]) and 1320 in data set [2] (setting [15]). In addition, in data set [2] (male, CD, plasma, iv, i.v. dosing), the mean residence time MRT is 2.4 h. Further, the clearance in data set [2] (male, CD, plasma, iv, i.v. dosing (i.v. dose 0.1-0.5 per compound)) was 462 mL/min/kg. In addition, in data set [2] (male, CD, plasma, iv, i.v. dosing, read-out: Vss), the Vd worked out at 39 L/kg. Moreover, the half-life in data set [2] (male, CD, plasma, iv, i.v. dosing, read-out: t½ (converted)) is 2.2 h. The “Lung conc i.t./i.v. Ratio at time (h)” value in data set [2] (0.1 h) is given as 13.2; in data set [2] (1.5 h) it was 5.8; in data set [2] (24 h) it was 18.2. The “i.t. BAV (%)” value in data set [2] (i.t. dosing (i.t. dose 0.1-0.5 per compound)) is recorded as 67%. Moreover, the “BAL % administered dose at time (h)” value in data set [2] (i.t. dosing, 0.1 h) was 3%; in data set [2] (i.t. dosing, 1.5 h), 0.3%; in data set [2] (i.t. dosing, 24 h) it was 0.1%; in data set [2] (i.v. dosing, 0.1 h) it was 0.01%; in data set [2] (i.v. dosing, 1.5 h), “BLQ”; in data set [2] (i.v. dosing, 24 h), “BLQ”. Also, the “lung/plasma ratio at time(h)” value in data set [2] (i.v. dosing, 24 h) is “BLQ”. Besides, the Ki at PDGFRβ [3] came to 9.66 nM. In addition, the “Cell viability at 100 nM (%)” value in the data set on MRC5 cells was 99.2%. Further, the “Cell viability at 300 nM (%)” value in the data set with MRC5 cells is 94.8%. The “Cell viability at 1000 nM (%)” value with MRC5 cells turned out to be 88.8%.
Consider `COC(=O)c1cc2c(cc1C)/C(=C(/Nc1ccc(C(=O)N(C)OCCN3CCNCC3)cc1)c1ccccc1)C(=O)N2` [Example 57], for which, at PDGFRβ [1], the concentration for half-maximal inhibition (IC50) is 5.04 nM. Besides, the “% phos: percentage phosphorylation after wash-out relative to maximal phosphorylation (100%)” value at PDGFRβ [4] (after wash-out, rhuPDGF-BB, experiments in Groups 1-4) was 73.1%. This molecule displayed a recovery at 5 hr, 10 μM in the data set “PAMPA permeability assay” (setting [5]) of 50.5%. This molecule gave a Papp at 5 h, 10 μM in “PAMPA permeability assay” of 0.688 ×10⁻⁶ cm/s. Further, the inhibition constant (Ki) at PDGFRβ [3] turned out to be 9.84 nM. In addition, in the data set on MRC5 cells, the “Cell viability at 100 nM (%)” value was found to be 123.5%, the “Cell viability at 300 nM (%)” value was determined as 123.2% and the “Cell viability at 1000 nM (%)” value is recorded as 91.2%.
